Legend:
Assay in all cases: scanMAX Kinase assay panel
Format in all cases: binding
Conditions in all cases: read-out: % control
[1] = biological target: ABL1(H396P)-phosphorylated (Homo sapiens (Human), UniProt P00519, H396P)
Method in brief: (§1)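 Measurements came from scanMAX kinase selectivity profiling. Each value was normalised by subtracting the positive control and dividing by the span between the DMSO vehicle and the positive control, then multiplied by 100.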

ACVR2B = ACVR2B (Homo sapiens (Human), UniProt Q13705)
Sequence of ACVR2B (Q13705 19-512): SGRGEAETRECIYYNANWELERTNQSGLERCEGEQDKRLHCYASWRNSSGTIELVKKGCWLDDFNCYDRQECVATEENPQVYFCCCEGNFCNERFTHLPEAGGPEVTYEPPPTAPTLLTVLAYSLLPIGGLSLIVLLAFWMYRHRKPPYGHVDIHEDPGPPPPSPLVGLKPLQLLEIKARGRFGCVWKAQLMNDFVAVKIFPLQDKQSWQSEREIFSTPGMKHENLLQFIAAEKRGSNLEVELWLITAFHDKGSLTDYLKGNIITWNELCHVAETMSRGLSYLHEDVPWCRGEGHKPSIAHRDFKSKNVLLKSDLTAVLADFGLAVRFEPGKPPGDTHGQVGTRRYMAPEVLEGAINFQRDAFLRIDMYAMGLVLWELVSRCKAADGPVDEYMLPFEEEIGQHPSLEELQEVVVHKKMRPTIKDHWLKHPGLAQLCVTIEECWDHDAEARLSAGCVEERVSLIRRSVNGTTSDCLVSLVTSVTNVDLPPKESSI
Method in brief: as §1

BLK = BLK (Homo sapiens (Human), UniProt P51451)
Method in brief: as §1

CAMK1 = CAMK1 (Homo sapiens (Human), UniProt Q14012)
Sequence of CAMK1 (Q14012 whole entry): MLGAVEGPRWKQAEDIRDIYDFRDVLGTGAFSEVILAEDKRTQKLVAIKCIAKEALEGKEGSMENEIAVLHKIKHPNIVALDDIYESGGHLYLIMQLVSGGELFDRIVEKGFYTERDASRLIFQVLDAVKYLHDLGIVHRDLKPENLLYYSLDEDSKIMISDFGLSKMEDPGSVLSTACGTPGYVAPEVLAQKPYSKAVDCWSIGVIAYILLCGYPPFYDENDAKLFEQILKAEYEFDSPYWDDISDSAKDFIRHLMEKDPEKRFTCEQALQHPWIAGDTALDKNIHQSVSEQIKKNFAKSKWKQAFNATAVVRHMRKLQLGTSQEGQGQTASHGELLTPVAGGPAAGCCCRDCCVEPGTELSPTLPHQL
Method in brief: as §1

CDK7 = CDK7 (Homo sapiens (Human), UniProt P50613)
Method in brief: as §1

DCAMKL2 = DCAMKL2 (Homo sapiens (Human), UniProt Q8N568)
Sequence of DCAMKL2 (Q8N568 whole entry, looked up): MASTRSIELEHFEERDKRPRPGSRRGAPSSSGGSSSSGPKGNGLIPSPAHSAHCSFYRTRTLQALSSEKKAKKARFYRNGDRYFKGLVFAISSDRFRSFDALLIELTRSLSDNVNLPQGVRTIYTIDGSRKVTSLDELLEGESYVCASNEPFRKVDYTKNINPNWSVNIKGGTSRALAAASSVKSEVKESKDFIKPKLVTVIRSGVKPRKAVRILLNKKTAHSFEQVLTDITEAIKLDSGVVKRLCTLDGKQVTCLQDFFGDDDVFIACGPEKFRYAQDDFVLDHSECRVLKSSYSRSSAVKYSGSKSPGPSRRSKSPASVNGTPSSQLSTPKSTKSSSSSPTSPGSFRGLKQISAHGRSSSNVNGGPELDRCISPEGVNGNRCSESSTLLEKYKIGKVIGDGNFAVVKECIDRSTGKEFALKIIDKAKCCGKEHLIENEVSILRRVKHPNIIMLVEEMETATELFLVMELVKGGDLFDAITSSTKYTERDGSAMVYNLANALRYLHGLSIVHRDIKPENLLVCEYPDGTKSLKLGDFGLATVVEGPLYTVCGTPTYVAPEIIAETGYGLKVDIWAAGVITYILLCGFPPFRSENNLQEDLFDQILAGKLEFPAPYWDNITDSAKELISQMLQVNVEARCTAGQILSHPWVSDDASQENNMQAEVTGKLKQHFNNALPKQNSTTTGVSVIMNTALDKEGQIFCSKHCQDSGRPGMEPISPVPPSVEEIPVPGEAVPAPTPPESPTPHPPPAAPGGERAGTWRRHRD
Method in brief: as §1

EGFR(E746-A750del) = EGFR(E746-A750del) (Homo sapiens (Human), UniProt P00533, DEL746-750)
Method in brief: as §1

EGFR(G719S) = EGFR(G719S) (Homo sapiens (Human), UniProt P00533, G719S)
Method in brief: as §1

[2] = biological target: EGFR(L747-E749del, A750P) (Homo sapiens (Human), UniProt P00533, A750P/DEL747-749)
Method in brief: as §1

[3] = biological target: EGFR(L747-S752del, P753S) (Homo sapiens (Human), UniProt P00533, DEL747-752/P753S)
Method in brief: as §1

EGFR(L747-T751del, Sins) = EGFR(L747-T751del, Sins) (Homo sapiens (Human), UniProt P00533, DEL747-751/INS746S)
Sequence of EGFR(L747-T751del, Sins) (P00533 other isoform, or with tags, fused parts or gaps del 1-668/ins S behind 746/del 747-751/del 1012-1210 limits assumed): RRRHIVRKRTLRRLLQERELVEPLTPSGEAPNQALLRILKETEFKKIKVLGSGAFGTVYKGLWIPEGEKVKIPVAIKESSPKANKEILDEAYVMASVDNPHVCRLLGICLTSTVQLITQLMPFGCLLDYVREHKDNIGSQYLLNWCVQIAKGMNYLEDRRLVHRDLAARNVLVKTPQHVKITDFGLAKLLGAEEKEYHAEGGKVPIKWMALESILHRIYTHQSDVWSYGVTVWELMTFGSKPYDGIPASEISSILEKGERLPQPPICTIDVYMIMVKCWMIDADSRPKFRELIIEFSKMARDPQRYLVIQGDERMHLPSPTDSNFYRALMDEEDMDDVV
Method in brief: as §1

ERK5 = ERK5 (Homo sapiens (Human), UniProt Q13164)
Sequence of ERK5 (Q13164 whole entry): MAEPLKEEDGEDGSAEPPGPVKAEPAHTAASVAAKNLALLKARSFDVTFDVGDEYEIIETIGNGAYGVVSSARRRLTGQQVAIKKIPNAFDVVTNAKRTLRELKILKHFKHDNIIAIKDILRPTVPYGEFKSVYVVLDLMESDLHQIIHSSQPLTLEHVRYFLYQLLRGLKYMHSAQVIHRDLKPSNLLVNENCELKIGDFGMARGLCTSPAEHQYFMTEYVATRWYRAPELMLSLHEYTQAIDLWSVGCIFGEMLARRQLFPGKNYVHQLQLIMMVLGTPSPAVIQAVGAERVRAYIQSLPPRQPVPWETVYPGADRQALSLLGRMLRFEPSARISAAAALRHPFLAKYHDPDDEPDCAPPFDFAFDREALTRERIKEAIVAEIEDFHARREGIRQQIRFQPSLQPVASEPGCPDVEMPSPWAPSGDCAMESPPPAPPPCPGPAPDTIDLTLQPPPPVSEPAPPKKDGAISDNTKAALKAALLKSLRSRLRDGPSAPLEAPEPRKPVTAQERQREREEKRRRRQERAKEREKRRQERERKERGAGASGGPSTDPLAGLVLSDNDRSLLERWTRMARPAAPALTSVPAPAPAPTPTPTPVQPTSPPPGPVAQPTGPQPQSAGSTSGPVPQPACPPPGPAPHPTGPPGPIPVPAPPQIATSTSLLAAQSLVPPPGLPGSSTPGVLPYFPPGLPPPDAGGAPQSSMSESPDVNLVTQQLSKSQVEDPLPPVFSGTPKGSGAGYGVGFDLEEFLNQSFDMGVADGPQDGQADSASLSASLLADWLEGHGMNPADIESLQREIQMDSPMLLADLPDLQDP
Method in brief: as §1

FAK = FAK (Homo sapiens (Human), UniProt Q05397)
Method in brief: as §1

GRK2 = GRK2 (Homo sapiens (Human), UniProt P25098)
Method in brief: as §1

HPK1 = HPK1 (Homo sapiens (Human), UniProt Q92918)
Sequence of HPK1 (Q92918 whole entry): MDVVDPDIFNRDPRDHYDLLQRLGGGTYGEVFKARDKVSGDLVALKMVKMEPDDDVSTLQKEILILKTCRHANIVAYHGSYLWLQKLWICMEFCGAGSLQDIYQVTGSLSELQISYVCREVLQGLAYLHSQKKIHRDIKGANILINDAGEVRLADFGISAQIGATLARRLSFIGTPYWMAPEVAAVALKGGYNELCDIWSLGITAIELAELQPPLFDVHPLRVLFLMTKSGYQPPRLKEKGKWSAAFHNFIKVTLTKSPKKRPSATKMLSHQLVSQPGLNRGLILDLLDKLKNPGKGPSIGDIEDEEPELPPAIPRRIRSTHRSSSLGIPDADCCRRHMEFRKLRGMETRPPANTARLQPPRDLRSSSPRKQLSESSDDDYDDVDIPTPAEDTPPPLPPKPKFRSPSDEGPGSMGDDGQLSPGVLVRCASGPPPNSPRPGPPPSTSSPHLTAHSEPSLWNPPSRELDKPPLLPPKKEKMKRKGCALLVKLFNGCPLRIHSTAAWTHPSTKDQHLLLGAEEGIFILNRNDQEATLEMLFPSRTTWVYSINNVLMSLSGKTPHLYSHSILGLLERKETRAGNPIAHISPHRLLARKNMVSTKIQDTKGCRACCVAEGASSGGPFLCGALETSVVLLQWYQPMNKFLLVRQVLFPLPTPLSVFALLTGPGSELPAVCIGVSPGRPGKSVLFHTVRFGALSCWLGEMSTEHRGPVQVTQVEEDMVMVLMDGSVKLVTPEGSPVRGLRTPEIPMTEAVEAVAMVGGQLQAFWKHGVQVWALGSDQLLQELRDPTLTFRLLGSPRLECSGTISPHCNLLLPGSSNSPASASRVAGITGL
Method in brief: as §1

IKK-epsilon = IKK-epsilon (Homo sapiens (Human), UniProt Q14164)
Sequence of IKK-epsilon (Q14164 whole entry): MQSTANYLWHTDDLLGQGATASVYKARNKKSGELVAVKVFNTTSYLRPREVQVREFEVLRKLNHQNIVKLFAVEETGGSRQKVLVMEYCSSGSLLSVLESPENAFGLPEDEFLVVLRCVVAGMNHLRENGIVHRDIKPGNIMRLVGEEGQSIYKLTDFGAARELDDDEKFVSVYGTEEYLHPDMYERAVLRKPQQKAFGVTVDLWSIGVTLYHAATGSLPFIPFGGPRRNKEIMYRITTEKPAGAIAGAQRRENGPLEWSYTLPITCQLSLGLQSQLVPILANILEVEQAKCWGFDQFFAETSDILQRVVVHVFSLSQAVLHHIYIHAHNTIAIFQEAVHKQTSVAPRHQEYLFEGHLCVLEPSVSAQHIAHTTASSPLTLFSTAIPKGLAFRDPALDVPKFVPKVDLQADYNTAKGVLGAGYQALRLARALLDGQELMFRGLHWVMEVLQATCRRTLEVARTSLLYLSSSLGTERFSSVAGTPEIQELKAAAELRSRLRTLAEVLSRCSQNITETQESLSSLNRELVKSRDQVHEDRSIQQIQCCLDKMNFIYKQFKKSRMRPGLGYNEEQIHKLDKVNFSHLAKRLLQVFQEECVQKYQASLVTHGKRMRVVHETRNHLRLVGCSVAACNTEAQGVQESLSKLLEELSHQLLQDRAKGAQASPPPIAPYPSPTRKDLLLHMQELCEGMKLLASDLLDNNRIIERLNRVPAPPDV
Method in brief: as §1

KIT(D816H) = KIT(D816H) (Homo sapiens (Human), UniProt P10721, D816H)
Method in brief: as §1

MAK = MAK (Homo sapiens (Human), UniProt P20794)
Method in brief: as §1

MAP4K3 = MAP4K3 (Homo sapiens (Human), UniProt Q8IVH8)
Method in brief: as §1

MAP4K5 = MAP4K5 (Homo sapiens (Human), UniProt Q9Y4K4)
Method in brief: as §1

MAPKAPK5 = MAPKAPK5 (Homo sapiens (Human), UniProt Q8IW41)
Method in brief: as §1

MEK6 = MEK6 (Homo sapiens (Human), UniProt P52564)
Method in brief: as §1

MYO3B = MYO3B (Homo sapiens (Human), UniProt Q8WXR4)
Method in brief: as §1

NIK = NIK (Homo sapiens (Human), UniProt Q99558)
Method in brief: as §1

NIM1 = NIM1 (Homo sapiens (Human), UniProt Q8IY84)
Sequence of NIM1 (Q8IY84 whole entry): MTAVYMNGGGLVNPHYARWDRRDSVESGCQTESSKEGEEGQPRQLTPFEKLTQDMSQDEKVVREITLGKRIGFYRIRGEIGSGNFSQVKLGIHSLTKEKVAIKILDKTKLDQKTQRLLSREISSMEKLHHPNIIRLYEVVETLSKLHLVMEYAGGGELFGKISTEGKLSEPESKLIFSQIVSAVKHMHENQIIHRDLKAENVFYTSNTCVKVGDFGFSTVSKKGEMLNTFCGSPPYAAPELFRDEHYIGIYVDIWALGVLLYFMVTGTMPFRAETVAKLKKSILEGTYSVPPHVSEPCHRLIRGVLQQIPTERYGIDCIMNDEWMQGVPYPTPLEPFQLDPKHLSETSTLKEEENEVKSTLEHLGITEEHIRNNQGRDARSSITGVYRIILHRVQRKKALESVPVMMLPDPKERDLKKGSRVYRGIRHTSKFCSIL
Method in brief: as §1

NLK = NLK (Homo sapiens (Human), UniProt Q9UBE8)
Method in brief: as §1

PAK1 = PAK1 (Homo sapiens (Human), UniProt Q13153)
Method in brief: as §1

PFTAIRE2 = PFTAIRE2 (Homo sapiens (Human), UniProt Q96Q40)
Method in brief: as §1

PIK3C2B = PIK3C2B (Homo sapiens (Human), UniProt O00750)
Method in brief: as §1

QSK = QSK (Homo sapiens (Human), UniProt Q9Y2K2)
Method in brief: as §1

ROCK2 = ROCK2 (Homo sapiens (Human), UniProt O75116)
Method in brief: as §1

[4] = biological target: RPS6KA5(Kin.Dom.1-N-terminal) (Homo sapiens (Human), UniProt O75582)
Method in brief: as §1

[5] = biological target: RSK3(Kin.Dom.2-C-terminal) (Homo sapiens (Human), UniProt Q15349)
Method in brief: as §1

TIE1 = TIE1 (Homo sapiens (Human), UniProt P35590)
Method in brief: as §1

[6] = biological target: TYK2(JH2domain-pseudokinase) (Homo sapiens (Human), UniProt P29597)
Method in brief: as §1

TYRO3 = TYRO3 (Homo sapiens (Human), UniProt Q06418)
Method in brief: as §1

WNK2 = WNK2 (Homo sapiens (Human), UniProt Q9Y3S1)
Method in brief: as §1

Structure (SMILES): CCNc1cc(Nc2ccc(C(=O)N3CCC(N4CCOCC4)CC3)cc2OC)nc2[nH]cc(C#N)c12 [Example 18, 4-(ethylamino)-6-((2-methoxy-4-(4-morpholinopiperidine-1-carbonyl)phenyl)amino)-1H-pyrrolo[2,3-b]pyridine-3-carbonitrile]
- remaining binding at 1 µM [1]: 85%
- remaining binding at 1 µM (ACVR2B): 100%
- remaining binding at 1 µM (BLK): 99%
- remaining binding at 1 µM (CAMK1): 62%
- remaining binding at 1 µM (CDK7): 55%
- remaining binding at 1 µM (DCAMKL2): 77%
- remaining binding at 1 µM (EGFR(E746-A750del)): 83%
- remaining binding at 1 µM (EGFR(G719S)): 80%
- remaining binding at 1 µM [2]: 100%
- remaining binding at 1 µM [3]: 92%
- remaining binding at 1 µM (EGFR(L747-T751del, Sins)): 100%
- remaining binding at 1 µM (ERK5): 20%
- remaining binding at 1 µM (FAK): 78%
- remaining binding at 1 µM (GRK2): 71%
- remaining binding at 1 µM (HPK1): 76%
- remaining binding at 1 µM (IKK-epsilon): 96%
- remaining binding at 1 µM (KIT(D816H)): 80%
- remaining binding at 1 µM (MAK): 92%
- remaining binding at 1 µM (MAP4K3): 93%
- remaining binding at 1 µM (MAP4K5): 99%
- remaining binding at 1 µM (MAPKAPK5): 43%
- remaining binding at 1 µM (MEK6): 53%
- remaining binding at 1 µM (MYO3B): 73%
- remaining binding at 1 µM (NIK): 25%
- remaining binding at 1 µM (NIM1): 81%
- remaining binding at 1 µM (NLK): 84%
- remaining binding at 1 µM (PAK1): 92%
- remaining binding at 1 µM (PFTAIRE2): 79%
- remaining binding at 1 µM (PIK3C2B): 100%
- remaining binding at 1 µM (QSK): 92%
- remaining binding at 1 µM (ROCK2): 7.8%
- remaining binding at 1 µM [4]: 100%
- remaining binding at 1 µM [5]: 12%
- remaining binding at 1 µM (TIE1): 88%
- remaining binding at 1 µM [6]: 67%
- remaining binding at 1 µM (TYRO3): 80%
- remaining binding at 1 µM (WNK2): 91%

Structure (SMILES): CCNc1cc(Nc2ccc(C(=O)N3CCC(N4CCOCC4)CC3)cc2OC)nc2[nH]cc(C(F)(F)F)c12 [Example 57, (4-((4-(ethylamino)-3-(trifluoromethyl)-1H-pyrrolo[2,3-b]pyridin-6-yl)amino)-3-methoxyphenyl) (4-morpholinopiperidin-1-yl)methanone]
- remaining binding at 1 µM [1]: 100%
- remaining binding at 1 µM (ACVR2B): 98%
- remaining binding at 1 µM (BLK): 73%
- remaining binding at 1 µM (CAMK1): 78%
- remaining binding at 1 µM (CDK7): 53%
- remaining binding at 1 µM (DCAMKL2): 79%
- remaining binding at 1 µM (EGFR(E746-A750del)): 98%
- remaining binding at 1 µM (EGFR(G719S)): 92%
- remaining binding at 1 µM [2]: 94%
- remaining binding at 1 µM [3]: 97%
- remaining binding at 1 µM (EGFR(L747-T751del, Sins)): 97%
- remaining binding at 1 µM (ERK5): 50%
- remaining binding at 1 µM (FAK): 77%
- remaining binding at 1 µM (GRK2): 95%
- remaining binding at 1 µM (HPK1): 91%
- remaining binding at 1 µM (IKK-epsilon): 96%
- remaining binding at 1 µM (KIT(D816H)): 96%
- remaining binding at 1 µM (MAK): 95%
- remaining binding at 1 µM (MAP4K3): 91%
- remaining binding at 1 µM (MAP4K5): 100%
- remaining binding at 1 µM (MAPKAPK5): 100%
- remaining binding at 1 µM (MEK6): 72%
- remaining binding at 1 µM (MYO3B): 83%
- remaining binding at 1 µM (NIK): 82%
- remaining binding at 1 µM (NIM1): 100%
- remaining binding at 1 µM (NLK): 84%
- remaining binding at 1 µM (PAK1): 73%
- remaining binding at 1 µM (PFTAIRE2): 94%
- remaining binding at 1 µM (PIK3C2B): 78%
- remaining binding at 1 µM (QSK): 87%
- remaining binding at 1 µM (ROCK2): 100%
- remaining binding at 1 µM [4]: 100%
- remaining binding at 1 µM [5]: 82%
- remaining binding at 1 µM (TIE1): 100%
- remaining binding at 1 µM [6]: 100%
- remaining binding at 1 µM (TYRO3): 96%
- remaining binding at 1 µM (WNK2): 100%

From US11117892B2, “Pyrrolo-pyridine derivative compound, method for preparing same, and pharmaceutical composition containing same as active ingredient for prevention or treatment of protein kinase-related diseases” (DAEGU-GYEONGBUK MEDICAL INNOVATION FOUNDATION, priority 2017, dated 2021)
